Experimental data: patent US5153173A, “N-acyl derivatives of the peptidoglycan monomer, pharmaceutically acceptable salts thereof, their preparation and use as immunomodulators and immunoadjuvants” (Pliva Farmaceutska, priority 1990, dated 1992)
Several values for one entry are separate records, joined by “and”; a condition that tells them apart may be missing. Equal values may be shown once.

Legend:
[1] = Spleen weight of CBA mice after a single i.v. dose; assay type: in vivo, CBA male mice; conditions: for Spleen weight, % (control = 100) / Spleen weight: CBA male mice, single i.v. dose 200 μg/mouse (10 mg/kg); for Spleen weight, % (control = 100): relative to control of the same experiment; for Spleen weight: value ± spread; for increase in the spleen weight in comparison to the control values: statistically significant, CBA mice, i.v. 200 μg/mouse; for change in the spleen weight: differences to control not significant, tendency of improved activity
Protocol: (§1) The biological activity of the claimed compounds was tested on CBA male mice, 2-2.5 months old. The animals had been adapting to the laboratory conditions at least one week prior to each testing. The effectiveness of the N-acyl derivative of PGM was compared with the results achieved in control mice goups which were administered a physiological solution (negative control) and the original PGM (positive control). All tested substances were administered to the organism by intravenous (i.v.) route in a single dose of 200 μg/mouse and 10 mg/kg resp. The following effects of the immunopharmacological activity were surveyed: spleen weight, number of lymphocytes and number of PFC (plaque forming cells) according to the method of Jerne (in: Cell Bound Antibodies, Whister Institute Press, Philadelphia (1963), p.109). The spleen weight is expressed in mg. The number of the spleen lymphocytes is expressed as the absolute number in 1 ml, whereas the PFC are expressed by way of their total number and by their activity 10^6 spleen lymphocytes. The test groups and the corresponding control groups resp. comprised each 5-7 mice. The activity of each N-acyl derivative of PGM was examined at least three times in various periods. The statistical analysis was performed with the parametric Student t-test, applying the original computer programme Stat Works. The significance of the differences was assessed by two-tailed test at the level of acceptance equal or less than 5%. The summarized results of the effects of individual N-acyl derivatives on the parameters of immune response are listed in Table 1.

spleen lymphocytes = test: Number of spleen lymphocytes of CBA mice after a single i.v. dose; assay type: in vivo, CBA male mice; parameters: No spleen cells: unit not given beside the values; conditions: for No spleen cells, % (control = 100) / No spleen cells: CBA male mice, single i.v. dose 200 μg/mouse; for No spleen cells, % (control = 100): relative to control of the same experiment; for effect upon the number of spleen lymphocytes / increase of the number of the spleen lymphocytes / reduction of the number of spleen lymphocytes in comparison to the control values: CBA mice, i.v. 200 μg/mouse; for No spleen cells: absolute number of spleen lymphocytes in 1 ml, value ± spread; for increase of the number of the spleen lymphocytes / reduction of the number of spleen lymphocytes in comparison to the control values: absolute number in 1 mL
Protocol: as §1

[2] = system: PFC (plaque forming cells); test: Number of PFC (plaque forming cells), method of Jerne, in CBA mice; assay type: in vivo, CBA male mice; conditions: for Abs. PFC, % (control = 100) / PFC/l mil, % (control = 100) / PFC/l mil / Abs. PFC: CBA male mice, single i.v. dose 200 μg/mouse; for Abs. PFC, % (control = 100) / PFC/l mil, % (control = 100): relative to control of the same experiment; for PFC/l mil: PFC per 10^6 spleen lymphocytes; for PFC/l mil / Abs. PFC: value ± spread; for Abs. PFC: total number of PFC; for PFC activity with respect to the number of the spleen lymphocytes, significance / increase of PFC / overall PFC activity, significance (words): Student t-test versus control
Protocol: as §1

immune response = test: Overall immunopharmacological activity (cellular and humoral immunity) in CBA mice; assay type: in vivo, CBA male mice; conditions: for effect on the cellular immune response / involvement in the humoral immunity: conclusion from Table 1
Protocol: as §1

[3] = Z. Immun.-Forsch. 155 (1979), 312-328; cited from earlier work
[4] = cited from earlier work
[5] = Eur. J. Cancer Oncol. 19 (1983); Cancer Immunol. Immunother. 15 (1983), 18 (1984); cited from earlier work

Molecule | Spleen weight, % (control = 100) [1] [%] | Spleen weight [1] [mg] | No spleen cells, % (control = 100) (spleen lymphocytes) | No spleen cells (spleen lymphocytes) | Abs. PFC, % (control = 100) [2] | PFC/l mil, % (control = 100) [2] | PFC/l mil [2] | Abs. PFC [2] | change in the spleen weight [1] | PFC activity with respect to the number of the spleen lymphocytes, significance [2] | reduction of the number of spleen lymphocytes in comparison to the control values (spleen lymphocytes) | further results
sodium salt of N-stearoyl-PGM [Stearoyl PGM] | 113 | 123.6 ± 18.63 | 100% | 37.8 ± 6.90 | 126% | 118% | 219.2 ± 67.11 | 93.4 ± 37.55 | – | – | – | increase in the spleen weight in comparison to the control values [1]: 13%; effect upon the number of spleen lymphocytes (spleen lymphocytes): no effect
Na-salt of N-capriloyl-PGM [Capriloyl PGM] | 100 | 120.4 ± 12.36 | 119% | 46.1 ± 11.70 | 159% | 126% | 154.2 ± 111.12 | 88.5 ± 75.95 | – | – | – | increase of the number of the spleen lymphocytes (spleen lymphocytes): 19%; effect on the cellular immune response (immune response): significant effect
Na-salt of N-benzoyl-PGM [Benzoyl PGM] | 114 | 113.4 ± 22.28 | 100% | 34.1 ± 9.56 | 138% | 142% | 282.1 | 95.7 ± 28.45 | relative increase | clearly expressed enhancing tendency | – | effect upon the number of spleen lymphocytes (spleen lymphocytes): no effect; involvement in the humoral immunity (immune response): more significantly involved; increase of PFC / overall PFC activity, significance (words) ([2]; listed as N-benzoyl): statistically significant difference; increase of PFC / overall PFC activity, significance (words) ([2]; listed as benzoyl): significant effect
Na-salt of N-pivaloyl-PGM [Pivaloyl PGM] | 107 | 125.5 ± 19.44 | 94% | 42.9 ± 9.82 | 110% | 118% | 163.8 ± 52.95 | 76.4 ± 24.94 | relative increase | – | 4-6% | –
NA-salt of N-acetyl-PGM [Acetyl PGM] | 106 | 112.3 ± 12.08 | 96% | 41.9 ± 5.66 | 111% | 119% | 202.7 ± 91.97 | 85.8 ± 33.17 | – | clearly expressed enhancing tendency | 4-6% | –
CC(=O)NC1C(OC2C(CO)OC(O)C(NC(C)=O)C2OC(C)C(=O)NC(C)C(=O)NC(CCC(=O)NC(CCCC(N)C(=O)O)C(=O)NC(C)C(=O)NC(C)C(=O)O)C(N)=O)OC(CO)C(O)C1O (centres unmarked) [PGM, peptidoglycan monomer] | – | – | 122% and 87% and 113% and 94% and 93% and 102% and 90% | – | 159% and 139% and 119% and 102% and 100% and 105% and 112% and 135% | 128% and 116% and 111% and 96% and 102% and 118% and 150% | 156.1 ± 102.78 and 190.4 ± 79.53 and 117.1 ± 48.37 and 214.4 ± 95.61 and 163.6 ± 72.39 and 141.4 ± 40.57 and 219.1 ± 96.98 and 206.9 | – | – | – | – | immunomodulating activity [3]: immunomodulating; Spleen weight, % (control = 100) ([1]; 10 mg/kg): 115% and 107% and 104% and 103% and 106% and 102%; solubility in organic solvents ([4]; organic solvents): insoluble; solubility in water ([4]; water): well water-soluble; antimetastatic activity [5]: antimetastatic activity
Na-salt of N-lauroyl-PGM [Lauroyl PGM] | 112 | 135.5 ± 22.60 | 79% | 45.2 ± 8.50 | 162% | 155% | 254.2 | 125.4 ± 68.45 | relative increase | statistically significant difference | 20% | activity in comparison with the original PGM (immune response; administered in the same concentration): superior activity; effect on the cellular immune response (immune response): significant effect; involvement in the humoral immunity (immune response): more significantly involved; increase of PFC / overall PFC activity, significance (words) ([2]; listed as N-lauroyl): statistically significant difference; increase of PFC / overall PFC activity, significance (words) ([2]; listed as lauroyl): significant effect
sodium salt of N-oleoyl-PGM [Oleoyl PGM] | 121 | 131.7 ± 14.40 | 103% | 42.3 ± 7.96 | 113% | 109% | 210.8 ± 88.40 | 97.1 ± 41.86 | – | – | – | increase in the spleen weight in comparison to the control values [1]: 21%; increase of the number of the spleen lymphocytes (spleen lymphocytes): 3-9%
